From ChEMBL document CHEMBL3526091, “Pharmacokinetics, metabolism, and excretion of the glycogen synthase kinase-3 inhibitor LY2090314 in rats, dogs, and humans: a case study in rapid clearance by extensive metabolism with low circulating metabolite exposure” (Drug Metab Dispos, 2013)

Key:
[1] = Volume of distribution at steady state in cancer patient at 80 mg for 60 mins treated 1/8 cycle/day; type: ADME, organism-based; set-up: dosed compound name LY2090314; conditions: human, in vivo, read-out: Vdss
Canis familiaris [2] = assay: Drug recovery in beagle dog cage at 5 mg/kg, iv administered for 30 mins during 0 to 168 hrs time interval by radio analysis; type: ADME, organism-based, Canis lupus familiaris; set-up: dose 5 mg/kg, dosed compound name [14C]LY2090314, route intravenous; conditions: in vivo
[3] = Clearance in cancer patient at 10 mg for 60 mins treated 2/1 cycle/day; type: ADME, organism-based; set-up: dosed compound name LY2090314; conditions: human, in vivo
Canis familiaris [4] = assay: Drug recovery in beagle dog cage at 5 mg/kg, iv administered for 30 mins during 0 to 24 hrs time interval by radio analysis; type: ADME, organism-based, Canis lupus familiaris; set-up: dose 5 mg/kg, dosed compound name [14C]LY2090314, route intravenous; conditions: in vivo
Homo sapiens = species on record: Homo sapiens; assay: Drug recovery in cancer patient at 80 to 120 mg for 60 mins; type: ADME, organism-based; set-up: dosed compound name LY2090314; conditions: in vivo, 1 h
[5] = Drug metabolism in Mrp2 knockout Sprague-Dawley rat bile at 5 mg/kg, iv administered for 30 mins; type: ADME, organism-based; set-up: dose 5 mg/kg, dosed compound name LY2090314, route intravenous; conditions: in vivo, 0.5 h
[6] = Volume of distribution at steady state in cancer patient at 60 mg for 60 mins treated 1/8 cycle/day; type: ADME, organism-based; set-up: dosed compound name LY2090314; conditions: human, in vivo, read-out: Vdss
[7] = Drug recovery in bile duct-cannulated Sprague-Dawley rat urine at 5 mg/kg, iv administered for 30 mins during 0 to 12 hrs time interval by radio analysis; type: ADME, organism-based; set-up: dose 5 mg/kg, dosed compound name [14C]LY2090314, route intravenous; conditions: in vivo
Canis familiaris [8] = assay: Volume of distribution at steady state in beagle dog assessed as total radioactivity at 5 mg/kg, iv administered for 30 mins; type: ADME, organism-based, Canis lupus familiaris; set-up: dose 5 mg/kg, dosed compound name [14C]LY2090314, route intravenous; conditions: in vivo, 0.5 h
[9] = Drug metabolism in Bcrp knockout Sprague-Dawley rat bile at 5 mg/kg, iv administered for 30 mins; type: ADME, organism-based; set-up: dose 5 mg/kg, dosed compound name LY2090314, route intravenous; conditions: in vivo, 0.5 h
[10] = Drug metabolism in Mdr1a knockout Sprague-Dawley rat bile at 5 mg/kg, iv administered for 30 mins; type: ADME, organism-based; set-up: dose 5 mg/kg, dosed compound name LY2090314, route intravenous; conditions: in vivo, 0.5 h
[11] = Tmax in cancer patient at 20 mg for 60 mins treated 1/1 cycle/day; type: ADME, organism-based; set-up: dosed compound name LY2090314; conditions: human, in vivo
[12] = Clearance in cancer patient at 40 mg for 60 mins treated 1/8 cycle/day; type: ADME, organism-based; set-up: dosed compound name LY2090314; conditions: human, in vivo
Rattus norvegicus [13] = assay: AUC (0 to infinity) in Sprague-Dawley rat assessed as total radioactivity at 5 mg/kg, iv administered for 30 mins; type: ADME, organism-based, Plasma; set-up: dose 5 mg/kg, dosed compound name [14C]LY2090314, route intravenous, time infinity; conditions: in vivo, 0.5 h
Rattus norvegicus [14] = assay: Elimination half life in Sprague-Dawley rat assessed as total radioactivity at 5 mg/kg, iv administered for 30 mins; type: ADME, organism-based; set-up: dose 5 mg/kg, dosed compound name [14C]LY2090314, route intravenous; conditions: in vivo, 0.5 h
Plasma = assay: Drug recovery in beagle dog plasma assessed as radiochemical peak area at 5 mg/kg, iv administered for 30 mins after 0.5 hrs by radio analysis; type: ADME, organism-based, Canis lupus familiaris; set-up: dose 5 mg/kg, dosed compound name [14C]LY2090314, route intravenous; conditions: in vivo
[15] = Half life in cancer patient at 120 mg for 60 mins treated 1/1 cycle/day; type: ADME, organism-based; set-up: dosed compound name LY2090314; conditions: human, in vivo
[16] = Clearance in cancer patient at 20 mg for 60 mins treated 1/1 cycle/day; type: ADME, organism-based; set-up: dosed compound name LY2090314; conditions: human, in vivo
[17] = AUC (0 to infinity) in cancer patient at 120 mg for 60 mins treated 1/1 cycle/day; type: ADME, organism-based; set-up: dose 120 mg, time infinity, dosed compound name LY2090314; conditions: human, plasma
[18] = Drug recovery in beagle dog urine at 5 mg/kg, iv administered for 30 mins during 0 to 168 hrs time interval by radio analysis; type: ADME, organism-based, Canis lupus familiaris; set-up: dose 5 mg/kg, dosed compound name [14C]LY2090314, route intravenous; conditions: in vivo
[19] = AUC (0 to infinity) in cancer patient at 80 mg for 60 mins treated 1/1 cycle/day; type: ADME, organism-based; set-up: dose 80 mg, time infinity, dosed compound name LY2090314; conditions: human, plasma
[20] = Drug uptake in beagle […] blood at 5 mg/kg, iv administered for 30 mins; type: ADME, organism-based, Canis lupus familiaris; set-up: dose 5 mg/kg, dosed compound name [14C]LY2090314, route intravenous; conditions: in vivo, 0.5 h
[21] = Drug recovery in beagle dog urine at 5 mg/kg, iv administered for 30 mins during 0 to 12 hrs by radio analysis; type: ADME, organism-based, Canis lupus familiaris; set-up: dose 5 mg/kg, dosed compound name [14C]LY2090314, route intravenous; conditions: in vivo
[22] = Half life in cancer patient at 60 mg for 60 mins treated 1/1 cycle/day; type: ADME, organism-based; set-up: dosed compound name LY2090314; conditions: human, in vivo
[23] = Drug metabolism in Mdr1a knockout Sprague-Dawley rat urine at 5 mg/kg, iv administered for 30 mins; type: ADME, organism-based; set-up: dose 5 mg/kg, dosed compound name LY2090314, route intravenous; conditions: in vivo, 0.5 h
[24] = Cmax in cancer patient at 60 mg for 60 mins treated 1/8 cycle/day; type: ADME, organism-based; set-up: dose 60 mg, dosed compound name LY2090314; conditions: human, in vivo

- Vd [1]: 66 L
- Radiolabel recovery (Canis familiaris [2]): 3.22%
- clearance [3]: 870 mL/min
- Radiolabel recovery (Canis familiaris [4]): 2.03%
- Compound recovery (Homo sapiens): 1.6%
- Drug metabolism [5]: metabolite_detected
- Vd [6]: 67.5 L
- Radiolabel recovery [7]: 1.82%
- Vdss (Canis familiaris [8]): 9840 mL/kg
- Drug metabolism [9]: metabolite_detected
- Drug metabolism [10]: metabolite_detected
- Tmax [11]: 58.8 min
- clearance [12]: 710 mL/min
- AUC (Rattus norvegicus [13]): 1790 ng·h/mL
- beta t1/2 (Rattus norvegicus [14]): 7.25 h
- Radiolabel recovery (Plasma): 82.76%
- half-life [15]: 178 min
- clearance [16]: 782 mL/min
- AUC(0-inf) [17]: 3310 ng·h/mL
- Radiolabel recovery [18]: 20.6%
- AUC(0-inf) [19]: 1870 ng·h/mL
- Compound recovery [20]: 25.5%
- Radiolabel recovery [21]: 0.35%
- half-life [22]: 189 min
- Drug metabolism [23]: metabolite_detected
- Cmax [24]: 1040 ng/mL
SMILES: O=C1NC(=O)C(c2cnc3ccccn23)=C1c1cn2c3c(cc(F)cc13)CN(C(=O)N1CCCCC1)CC2 [LY-2090314]
